Measured values reported in patent US4638051A, “Brain imaging radiopharmaceuticals” (The Johns Hopkins University, priority 1985, dated 1987).

Experiment: Biodistribution studies in ICR white mice: percent of injected dose of Tc-99m complex in brain tissue
Assay type: in vivo
Settings: for % of Dose of Tc99m Complex in Brain, 5 min / % of Dose of Tc99m Complex in Brain, 10 min / % of Dose of Tc99m Complex in Brain, 15 min: ICR white mice, i.v. (tail), 0.5 to 2 microcuries, saline
Procedure: Biodistribution studies have been conducted with several complexes according to the present invention, in ICR white mice. A saline solution containing 0.5 to 2 microcuries of the Tc-99m complex was injected intravenously (tail), and the mice were sacrificed after 5, 10 or 15 minutes. The percent of the injected dose which was present in brain tissue was measured. […] On the other hand, the data reveal that the compounds containing the alkyl-amino group according to the present invention are retained in the brain for much longer times. For example, after 15 minutes, the concentration of compound 3 is 15 times that of compound 1.

concentration in brain relative to that of compound 1 (after 15 minutes, mice, i.v., relative to compound 1) [times]	SMILES	% of Dose of Tc99m Complex in Brain, 5 min	% of Dose of Tc99m Complex in Brain, 10 min	% of Dose of Tc99m Complex in Brain, 15 min
15	CC(C)NCCN(CCNCC(C)(C)S)CC(C)(C)S [Compound 3]	0.64 % of Dose	0.49 % of Dose	0.49 % of Dose
–	CN(C)CCN(CCNCC(C)(C)S)CC(C)(C)S [Compound 2]	0.89 % of Dose	0.30 % of Dose	0.42 % of Dose
–	CC(C)(S)CNC(C)(C)CN(CCN1CCCCC1)CC(C)(C)S [Compound 9]	2.19 % of Dose	–	1.01 % of Dose
–	CC(C)(S)CNCCNCC(C)(C)S [Compound 1, reference compound]	1.02 % of Dose	0.30 % of Dose	0.03 % of Dose
